Test results reported in patent publication US20260325575A1, “THE USE OF BORATE DERIVATIVES IN THE TREATMENT OF NEURODEGENERATIVE DISEASES” (YEDITEPE UNIVERSITESI, priority 2022, published 2026).

Legend:
[1] = test system: SOD1 G93A transgenic mice; assay: Rotarod test (motor performance) in SOD1 G93A transgenic mice; assay type: in vivo, mouse (C57BL/6 SOD1 G93A; details: 200 mg/kg by gavage every other day for 3 weeks; vs transgenic control (water); 14 rpm, max 180 s; n=8
Method: In the in vivo studies conducted, the SOD1 G93A transgenic mice model, which is one of the most preferred animal models for modeling ALS disease, was used. In the study (n=8); SPT and NaB were administered to the animals every other day by gavage. As a result of the comparison of the motor functions of these transgenic animals that received SPT and NaB throughout the experiment with the motor functions of the transgenic control (water) group, it was observed that SPT increased the performance of the rotarod test by 88.4% in the SOD1 G93A model compared to the control group (P<0.01). […] In the group that received water, it was observed that the findings aggravated over time and the rotarod performance decreased.
Example 1 Information about the Experimental Animals Used
Example 2 Experimental Groups
Example 3 Substance Administration
SPT or NaB derivatives at 200 mg/kg per mouse were vortexed at high speed and dissolved in the daily drinking water of the mice. […]
The mice were acclimatized with the rotarod test apparatus for one day before their motor function was tested and their performance was recorded at the end of the second day. Their motor performances were measured three times for a maximum of 180 seconds at a constant speed of 14 rpm, and their longest residence time on the apparatus was recorded. […]

[2] = test system: SOD1 G93A transgenic mice; assay: Neuroscoring, phenotypic characteristics of NS1 phase; assay type: in vivo, mouse (C57BL/6 SOD1 G93A
Method: SPT or NaB derivatives at 200 mg/kg per mouse were vortexed at high speed and dissolved in the daily drinking water of the mice. Borate Solutions prepared thus in drinking water were administered to mice by gavage every other day for 3 weeks. The control group received only the same amount of drinking water by gavage.
In order to observe during the experiment the stages when early and late symptoms of the disease occur, wild-type and transgenic animals were subjected to neuroscoring as described in the study by Hatzipetros et al. In this way, it was aimed to observe whether the administration to the animals caused any difference in the onset, course and severity of ALS symptoms. For this, the table of the disease course is graded with a scoring System as follows: • 1. Neuro Score 0 (NS 0, Pre-symptomatic): When suspended by the tail, the mouse can fully extend its hindlimbs away from the lateral midline to the side in a normal manner and stay in this position for at least two seconds or longer. When the mouse is allowed to walk, normal gait is observed. • 2. NS 1 (First symptoms): When the mouse is suspended by the tail, its hindlimbs cannot fully extend away from the lateral midline, they partially collapse backwards or the hindlimbs are observed to tremble (tremor). Towards the end of the phase, gait disturbances and slow gait (ataxia) begin. The first symptoms usually appear as of day 90. • 3. NS 2 (Partial paralysis, paresis): When the mouse is suspended by the tail, its hindlimbs are partially or completely collapsed, or cannot extend much, there is still joint movement. When the mouse is allowed to walk, it can use its hindlimbs for forward motion, however it is observed that its toes curl backwards at least twice during a 90 cm walk or it can move by dragging its feet. When the mouse is placed on its left or right side, it is able to right itself within 10 seconds. • 4. NS 3 (Paralysis): When the mouse is suspended by the tail, it is observed that there is rigid paralysis in its hindlimbs or minimal joint movement. When the mouse is allowed to walk, it is observed that there is forward motion however it cannot use its hindlimbs. When the mouse is placed on its left or right side, it is observed that it is able to right itself within 10 seconds. • 5. NS 4 (Humane end-point): When the mouse is suspended by the tail, it is observed that there is rigid paralysis in its hindlimbs. When the mouse is allowed to walk, no motion is observed, when the mouse is placed on its left or right side it is observed that it is not able to right itself within 10 seconds, i.e., absence of righting reflex.
According to this scoring system, if we divide the symptoms observed in animals into phases according to the order of occurrence, 50-80 days after birth can be considered pre-symptomatic. Since as of day 90 the first symptoms start to appear, we can consider this date as the beginning of the early symptomatic phase and also the beginning of neuroscore 1. Although it can vary, this period can last 20-38 days and also covers the neuroscore 2 phase. As of day 120 on average, the process is called late symptomatic. Although it may last a little longer in females, this period lasts 5-10 days on average and neuroscore 3 and 4 phases are also observed during this late symptomatic period

[3] = test system: gene expression in brain and spinal cord tissues of transgenic mice; assay: Microarray gene expression and pathway analysis (PANTHER GO) in brain and spinal cord; assay type: in vivo, mouse (C57BL/6 SOD1 G93A; details: transgenic animals, n=3
Method: FIG. 2. is a representation of the gene expressions of the other groups compared to the transgenic control group in the form of a heat map, as a result of the microarray analysis performed on the spinal cord materials of the transgenic and wild type experimental groups (n=3 per group) that received NaB, SPT and water only. (Statistical differences between groups were compared using Volcano plot analysis (two-way ANOVA; P values<0.05) and fold change ±2 and more were considered statistically significant).
FIG. 3. is a representation of some of the pathways in which SPT and NaB derivatives are found to be effective as a result of the pathway analysis (PANTHER Gene Ontology (GO) Classification and Pathway System) and of the number of genes located in these pathways (Total number of genes: 2677, total number of hits: 443).
In addition to measurements of motor function, in order to investigate whether derivatives induce any gene-based changes in the Central nervous system, brain and spinal cord materials were collected from wild type and transgenic control (water), NaB and SPT group animals with n=3 and RNA was isolated from these materials and microarray analysis was performed. […]

[4] = Cytotoxicity analysis (MTS); assay type: cell-based, human; details: human, differentiated sh-sy5y cells, neuronal cells, read-out: non-toxic concentration
Method: (§1) SHSY5Y cells stocked in cryo tubes at −80° C. or liquid nitrogen were kept in a water bath at 37° C. until completely solved. The solved cells were transferred to 15 ml Falcon tubes containing 5 ml cell medium and centrifuged at 300×g for 5 minutes. After centrifugation, the medium on the cells was removed and the cells were solved with 1 ml of fresh medium using a pipette. Then, the cells were transferred to cell flask containing 12 ml DMEM/F12 medium and incubated at 37° C. for 24±2 hours in an incubator containing 5% CO2.
(§2) The next day, the medium on the adherent cells was changed and incubation was continued until the cells formed 85%-90% monolayer […]. The medium of the monolayered cells was removed and the cells were washed with 5 ml PBS. […]
(§3) After the incubation period was completed, the medium on the cells was removed and the cells were washed again with 1 ml PBS. […] At the end of the tenth day, neuronal cells were ready.
(§4) After the incubation period was completed (24 hours), the medium on the cells was removed and replaced with 10% MTS solution prepared in the cell medium. […] After incubation, absorbance measurements were made using an ELISA plate reader at 490 nm. From the absorbance values obtained, cell viability was calculated according to the formula ((Mean Cell Abs./Mid. Negative Con. Abs.)*100). […]

[5] = test system: Amyloid beta plaques in SHSY5Y cells differentiated into cholinergic neurons; assay: Amyloid beta plaques in Alzheimer's model, immunocytochemistry (fluorescence); assay type: cell-based, human
Method: SH-SY5Y cells were seeded in 6-well plates with 250×10^5 cells in each well and incubated with medium containing DMEM/F12, 10% FBS, 1% PSA at 37° C. in 5% CO2 for 24 hours. Then, the medium on the cells was removed and each well was washed with 1 ml PBS. Then, 2 ml of differentiation medium (1% FBS, 10 μM/ml RA) was added to each cell well and cells were incubated for 72 hours.
After the incubation period was completed, the medium on the cells was removed and the cells were washed again with 1 ml PBS. Afterwards, 2 ml of differentiation medium (1% FBS, 10 μM/ml RA, 10 μg/ml BDNF) was added to the cells and incubated for 72 hours. The same procedure was repeated on the seventh day. At the end of the tenth day, neuronal cells were ready.
Obtaining Alzheimer's Model and Evaluation of Active Substances
Immunocytochemistry Analysis
The old media on the incubated cells were removed and the cells were washed three times with 1 ml PBS.
Firstly, cells were fixed with 1 ml of 2% paraformaldehyde for 30 min at room temperature and then washed three times with PBS. […]
After incubation, the cells were washed three times with PBS. […] Finally, the cells were washed three times with PBS and measurements were taken with a fluorescence microscope (Zeiss).
The data obtained from the immunocytochemistry study were analysed using Image J (National Institutes of Health) and MS Excel.

ALS patients = details: cited from earlier work
[6] = test system: SHSY5Y cells differentiated into neuron cells; assay: Cytotoxicity analysis (MTS); assay type: cell-based, human; details: 24 hours, neuronal cells
Method: as §1, §2, §3, §4

[7] = day 90, 200 mg/kg by gavage every other day, tg mice
[8] = day 110, 200 mg/kg by gavage every other day, tg mice

O.O.O.O.O.O=BO[B-](OB=O)(OB=O)OB=O.[Na+] [NaB, sodium; tetrakis(oxoboranyloxy)boranuide; pentahydrate]
increase in rotarod performance compared to the control group [1]: 62.45% | classical symptoms of stage 1 (NS1) at the end of the experiment (hindlimb retraction, tremor and ataxia) ([2]; animals still in NS1 at end of experiment, vs control group): considerably weaker than those in the control group | s3 (ataxia), day 80 (t = 0) ([2]; day 80, before administration, tg mice): very mild | s1 (hindlimb retraction), day 90 (onset of the disease-NS1) [2, 7]: mild | s2 (tremor), day 90 (onset of the disease-NS1) [2, 7]: mild | s3 (ataxia), day 90 (onset of the disease-NS1) [2, 7]: mild | s1 (hindlimb retraction), day 110 (experiment endpoint) [2, 8]: moderate | s2 (tremor), day 110 (experiment endpoint) [2, 8]: moderate | s3 (ataxia), day 110 (experiment endpoint) [2, 8]: moderate | gene expression compared to transgenic control / wild type [3]: reversed the gene expression at a statistically significant rate, approximating it to the gene expression level in wild type animals | MNTC at 24 h [4]: 5 µg/mL | cells with Amyloid beta plaques ([5]; 24 hours, substance alone (ONaB or OAβ group)): 0% | inhibition at 5 µg/mL ([5]; Homo sapiens, SH-SY5Y, 24 h, read-out: plaques dissolved in Aβ+NaB group compared to the OAβ group): 92.4%

Nc1nc2ccc(OC(F)(F)F)cc2s1 [Riluzole]
extension of patient's life span (ALS patients): approximately a few months

Amyloid Beta: Amyloid Beta (Aβ), applied to differentiated SHSY5Y cells to create an Alzheimer's model [reference compound]
non-toxic concentration [6]: 4 µg/mL
